Laboratory results published in US10028508B2, “Use of active compound compositions” (BAYER CROPSCIENCE AKTIENGESELLSCHAFT, priority 2014, dated 2018).
Read-outs that look alike come from different tables or passages of the source.

Tested on: Anopheles funestus metabolic-resistant strain FUMOZ-R
Assay: Metabolic-Resistant Anopheles Test (mortality on treated tile, wood, concrete)
Type: in vivo
Conditions: for mortality at 100 mg/m2: Clothianidin 100 mg/m2, read-out: Mortality Effect %; for mortality at 200 mg/m2: Clothianidin 200 mg/m2, read-out: Mortality Effect %
Procedure: To produce a suitable preparation of active compound combination the active compounds deltamethrin and clothanidin were dissolved in acetone (for the control group only one active compound was dissolved in acetone). The active compound combination preparation (and the active compound preparations) were pipetted onto a glazed tile, wood and concrete and, after drying, adult mosquitoes of the species Anopheles funestus metabolic-resistant strain FUMOZ-R (Hunt et al., Med Vet Entomol. 2005 September; 19(3):271-5) are placed onto the treated tile, wood and concrete. The exposition time is 30 minutes.
1 hour, 2 hour, 4 hour, 24 hours after contact to the treated surface, the mortality proportion of the test animals in % is determined. Here, 100% means that all mosquitoes have been killed; 0% means that none of the mosquitoes has been killed. The treated tile, wood and concrete was stored under stress conditions (30° C./80% rh). Measurement with the treated tile, wood and concrete was repeated 5 weeks (Table 1), 11 weeks (Table 2) and 60 weeks (Table 3) after the treatment with the active compound combination.

[1] = 5 weeks after treatment, Concrete, 1 h after contact
[2] = 5 weeks after treatment, Concrete, 2 h after contact
[3] = 5 weeks after treatment, Concrete, 4 h after contact
[4] = 5 weeks after treatment, Concrete, 24 h after contact
[5] = 5 weeks after treatment, Tile, 1 h after contact
[6] = 5 weeks after treatment, Tile, 2 h after contact
[7] = 5 weeks after treatment, Tile, 4 h after contact
[8] = 5 weeks after treatment, Tile, 24 h after contact
[9] = 5 weeks after treatment, Wood, 1 h after contact
[10] = 5 weeks after treatment, Wood, 2 h after contact
[11] = 5 weeks after treatment, Wood, 4 h after contact
[12] = 5 weeks after treatment, Wood, 24 h after contact
[13] = 11 weeks after treatment, Concrete, 1 h after contact
[14] = 11 weeks after treatment, Concrete, 2 h after contact
[15] = 11 weeks after treatment, Concrete, 4 h after contact
[16] = 11 weeks after treatment, Concrete, 24 h after contact
[17] = 11 weeks after treatment, Tile, 1 h after contact
[18] = 11 weeks after treatment, Tile, 2 h after contact
[19] = 11 weeks after treatment, Tile, 4 h after contact
[20] = 11 weeks after treatment, Tile, 24 h after contact
[21] = 11 weeks after treatment, Wood, 1 h after contact
[22] = 11 weeks after treatment, Wood, 2 h after contact
[23] = 11 weeks after treatment, Wood, 4 h after contact
[24] = 11 weeks after treatment, Wood, 24 h after contact
[25] = 60 weeks after treatment, Concrete, 1 h after contact
[26] = 60 weeks after treatment, Concrete, 2 h after contact
[27] = 60 weeks after treatment, Concrete, 4 h after contact
[28] = 60 weeks after treatment, Concrete, 24 h after contact
[29] = 60 weeks after treatment, Tile, 1 h after contact
[30] = 60 weeks after treatment, Tile, 2 h after contact
[31] = 60 weeks after treatment, Tile, 4 h after contact
[32] = 60 weeks after treatment, Tile, 24 h after contact
[33] = 60 weeks after treatment, Wood, 1 h after contact
[34] = 60 weeks after treatment, Wood, 2 h after contact
[35] = 60 weeks after treatment, Wood, 4 h after contact
[36] = 60 weeks after treatment, Wood, 24 h after contact

## CN/C(=N\[N+](=O)[O-])NCc1cnc(Cl)s1 [Clothianidin, clothianidin]
[1]
  mortality at 100 mg/m2: 15%
  mortality at 200 mg/m2: 3%
[2]
  mortality at 100 mg/m2: 10%
  mortality at 200 mg/m2: 17%
[3]
  mortality at 100 mg/m2: 30%
  mortality at 200 mg/m2: 30%
[4]
  mortality at 100 mg/m2: 93%
  mortality at 200 mg/m2: 83%
[5]
  mortality at 100 mg/m2: 0%
  mortality at 200 mg/m2: 0%
[6]
  mortality at 100 mg/m2: 7%
  mortality at 200 mg/m2: 0%
[7]
  mortality at 100 mg/m2: 7%
  mortality at 200 mg/m2: 10%
[8]
  mortality at 100 mg/m2: 80%
  mortality at 200 mg/m2: 90%
[9]
  mortality at 100 mg/m2: 7%
  mortality at 200 mg/m2: 7%
[10]
  mortality at 100 mg/m2: 20%
  mortality at 200 mg/m2: 10%
[11]
  mortality at 100 mg/m2: 27%
  mortality at 200 mg/m2: 20%
[12]
  mortality at 100 mg/m2: 93%
  mortality at 200 mg/m2: 93%
[13]
  mortality at 100 mg/m2: 23%
  mortality at 200 mg/m2: 3%
[14]
  mortality at 100 mg/m2: 67%
  mortality at 200 mg/m2: 17%
[15]
  mortality at 100 mg/m2: 73%
  mortality at 200 mg/m2: 47%
[16]
  mortality at 100 mg/m2: 93%
  mortality at 200 mg/m2: 83%
[17]
  mortality at 100 mg/m2: 7%
  mortality at 200 mg/m2: 7%
[18]
  mortality at 100 mg/m2: 10%
  mortality at 200 mg/m2: 20%
[19]
  mortality at 100 mg/m2: 13%
  mortality at 200 mg/m2: 43%
[20]
  mortality at 100 mg/m2: 37%
  mortality at 200 mg/m2: 73%
[21]
  mortality at 100 mg/m2: 0%
  mortality at 200 mg/m2: 13%
[22]
  mortality at 100 mg/m2: 3%
  mortality at 200 mg/m2: 17%
[23]
  mortality at 100 mg/m2: 33%
  mortality at 200 mg/m2: 17%
[24]
  mortality at 100 mg/m2: 27%
  mortality at 200 mg/m2: 40%
[25]
  mortality at 100 mg/m2: 0%
  mortality at 200 mg/m2: 0%
[26]
  mortality at 100 mg/m2: 3%
  mortality at 200 mg/m2: 7%
[27]
  mortality at 100 mg/m2: 20%
  mortality at 200 mg/m2: 17%
[28]
  mortality at 100 mg/m2: 37%
  mortality at 200 mg/m2: 63%
[29]
  mortality at 100 mg/m2: 0%
  mortality at 200 mg/m2: 0%
[30]
  mortality at 100 mg/m2: 0%
  mortality at 200 mg/m2: 3%
[31]
  mortality at 100 mg/m2: 0%
  mortality at 200 mg/m2: 7%
[32]
  mortality at 100 mg/m2: 17%
  mortality at 200 mg/m2: 43%
[33]
  mortality at 100 mg/m2: 0%
  mortality at 200 mg/m2: 0%
[34]
  mortality at 100 mg/m2: 0%
  mortality at 200 mg/m2: 3%
[35]
  mortality at 100 mg/m2: 0%
  mortality at 200 mg/m2: 3%
[36]
  mortality at 100 mg/m2: 10%
  mortality at 200 mg/m2: 17%
